Source: the kinase profiling compilation of Christmann-Franck et al. (2016)

Columns and labels:
Test in all cases: KINOMEscan competition binding
Settings in all cases: compound 10.0 µM
ACVR2A (human) = ACVR2A (human) (UniProt P27037)
ADCK3 (human) = ADCK3 (human) (UniProt Q8NI60)
BMPR1A (human) = BMPR1A (human) (UniProt P36894)
CAMK2B (human) = CAMK2B (human) (UniProt Q13554)
CDC42BPA (human) = CDC42BPA (human) (UniProt Q5VT25)
CDK5 (human) = CDK5 (human) (UniProt Q00535)
CHEK2 (human) = CHEK2 (human) (UniProt O96017)
CHUK (human) = CHUK (human) (UniProt O15111)
CHUK (human), sequence (O15111 whole entry, looked up): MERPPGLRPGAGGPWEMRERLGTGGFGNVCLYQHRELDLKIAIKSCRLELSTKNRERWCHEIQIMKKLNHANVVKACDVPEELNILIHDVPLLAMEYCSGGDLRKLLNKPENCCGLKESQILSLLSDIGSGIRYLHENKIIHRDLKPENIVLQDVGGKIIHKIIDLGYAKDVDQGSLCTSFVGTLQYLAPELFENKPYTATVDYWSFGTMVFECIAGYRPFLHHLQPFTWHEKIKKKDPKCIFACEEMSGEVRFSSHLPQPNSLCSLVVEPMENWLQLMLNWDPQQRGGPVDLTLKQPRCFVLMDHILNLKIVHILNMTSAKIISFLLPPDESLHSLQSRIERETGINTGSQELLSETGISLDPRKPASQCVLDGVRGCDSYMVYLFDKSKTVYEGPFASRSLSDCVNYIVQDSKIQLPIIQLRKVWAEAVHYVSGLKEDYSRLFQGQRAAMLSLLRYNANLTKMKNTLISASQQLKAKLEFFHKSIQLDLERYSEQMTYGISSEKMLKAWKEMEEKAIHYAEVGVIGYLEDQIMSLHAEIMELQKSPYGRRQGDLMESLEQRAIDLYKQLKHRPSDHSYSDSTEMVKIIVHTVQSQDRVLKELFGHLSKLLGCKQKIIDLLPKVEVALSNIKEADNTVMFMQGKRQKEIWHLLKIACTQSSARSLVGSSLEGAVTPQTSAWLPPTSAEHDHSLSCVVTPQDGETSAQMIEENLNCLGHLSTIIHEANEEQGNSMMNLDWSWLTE

CLK4 (human) = CLK4 (human) (UniProt Q9HAZ1)
CSNK1E (human) = CSNK1E (human) (UniProt P49674)
CaMK1 (human) = CaMK1 (human) (UniProt Q14012)
DMPK (human) = DMPK (human) (UniProt Q09013)
EPHB2 (human) = EPHB2 (human) (UniProt P29323)
EPHB2 (human), sequence (P29323 whole entry, looked up): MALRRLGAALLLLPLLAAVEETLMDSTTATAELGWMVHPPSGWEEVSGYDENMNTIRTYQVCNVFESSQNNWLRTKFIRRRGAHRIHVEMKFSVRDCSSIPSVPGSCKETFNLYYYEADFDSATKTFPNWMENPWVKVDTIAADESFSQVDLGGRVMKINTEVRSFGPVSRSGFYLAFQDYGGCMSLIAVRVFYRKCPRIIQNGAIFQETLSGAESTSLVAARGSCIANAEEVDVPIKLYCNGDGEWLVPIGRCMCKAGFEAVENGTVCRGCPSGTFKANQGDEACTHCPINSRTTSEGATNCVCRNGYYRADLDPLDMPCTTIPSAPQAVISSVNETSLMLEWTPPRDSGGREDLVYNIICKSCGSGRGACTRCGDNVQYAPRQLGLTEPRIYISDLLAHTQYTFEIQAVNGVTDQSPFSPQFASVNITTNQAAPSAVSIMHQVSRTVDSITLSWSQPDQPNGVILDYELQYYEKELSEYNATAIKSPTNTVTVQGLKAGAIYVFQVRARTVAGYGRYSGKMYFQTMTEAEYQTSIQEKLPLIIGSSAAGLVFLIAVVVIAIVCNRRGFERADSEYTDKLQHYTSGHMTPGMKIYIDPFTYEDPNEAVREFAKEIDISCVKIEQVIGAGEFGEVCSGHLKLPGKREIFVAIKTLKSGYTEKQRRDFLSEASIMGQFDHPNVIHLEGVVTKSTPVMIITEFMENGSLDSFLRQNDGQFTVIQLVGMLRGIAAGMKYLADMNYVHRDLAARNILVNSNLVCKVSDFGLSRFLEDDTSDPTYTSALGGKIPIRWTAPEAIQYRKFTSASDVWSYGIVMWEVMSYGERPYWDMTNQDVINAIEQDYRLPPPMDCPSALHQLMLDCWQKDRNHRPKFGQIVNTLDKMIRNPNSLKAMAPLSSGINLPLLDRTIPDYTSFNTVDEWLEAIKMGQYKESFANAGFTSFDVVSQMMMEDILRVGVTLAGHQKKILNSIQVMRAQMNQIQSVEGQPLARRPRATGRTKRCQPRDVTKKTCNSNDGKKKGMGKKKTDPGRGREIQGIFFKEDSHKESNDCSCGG

ERBB2 (human) = ERBB2 (human) (UniProt P04626)
FYN (human) = FYN (human) (UniProt P06241)
FYN (human), sequence (P06241 whole entry, looked up): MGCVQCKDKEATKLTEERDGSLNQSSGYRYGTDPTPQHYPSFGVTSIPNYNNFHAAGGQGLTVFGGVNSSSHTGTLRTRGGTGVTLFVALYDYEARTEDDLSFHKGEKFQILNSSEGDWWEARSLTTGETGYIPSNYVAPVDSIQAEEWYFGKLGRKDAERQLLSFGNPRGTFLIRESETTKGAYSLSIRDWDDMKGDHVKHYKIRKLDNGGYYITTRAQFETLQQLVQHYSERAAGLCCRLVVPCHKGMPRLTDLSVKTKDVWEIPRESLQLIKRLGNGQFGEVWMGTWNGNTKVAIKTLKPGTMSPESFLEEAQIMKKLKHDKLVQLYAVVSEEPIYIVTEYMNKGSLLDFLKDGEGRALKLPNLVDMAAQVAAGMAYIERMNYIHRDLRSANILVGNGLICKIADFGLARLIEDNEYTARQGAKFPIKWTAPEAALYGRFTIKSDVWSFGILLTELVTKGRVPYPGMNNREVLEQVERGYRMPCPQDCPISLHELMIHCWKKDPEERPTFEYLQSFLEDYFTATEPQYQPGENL

IKBKE (human) = IKBKE (human) (UniProt Q14164)
[1] = target: JAK2 JH1 catalytic (human) (UniProt O60674)
[2] = system: KIT (human), P10721 [V559D]
MAP2K1 (human) = MAP2K1 (human) (UniProt Q02750)
MAP2K4 (human) = MAP2K4 (human) (UniProt P45985)
MAP4K3 (human) = MAP4K3 (human) (UniProt Q8IVH8)
MARK1 (human) = MARK1 (human) (UniProt Q9P0L2)
MST4 (human) = MST4 (human) (UniProt Q9P289)
PAK7 (human) = PAK7 (human) (UniProt Q9P286)
PDGFRB (human) = PDGFRB (human) (UniProt P09619)
PIM3 (human) = PIM3 (human) (UniProt Q86V86)
PLK1 (human) = PLK1 (human) (UniProt P53350)
PLK1 (human), sequence (P53350 whole entry, looked up): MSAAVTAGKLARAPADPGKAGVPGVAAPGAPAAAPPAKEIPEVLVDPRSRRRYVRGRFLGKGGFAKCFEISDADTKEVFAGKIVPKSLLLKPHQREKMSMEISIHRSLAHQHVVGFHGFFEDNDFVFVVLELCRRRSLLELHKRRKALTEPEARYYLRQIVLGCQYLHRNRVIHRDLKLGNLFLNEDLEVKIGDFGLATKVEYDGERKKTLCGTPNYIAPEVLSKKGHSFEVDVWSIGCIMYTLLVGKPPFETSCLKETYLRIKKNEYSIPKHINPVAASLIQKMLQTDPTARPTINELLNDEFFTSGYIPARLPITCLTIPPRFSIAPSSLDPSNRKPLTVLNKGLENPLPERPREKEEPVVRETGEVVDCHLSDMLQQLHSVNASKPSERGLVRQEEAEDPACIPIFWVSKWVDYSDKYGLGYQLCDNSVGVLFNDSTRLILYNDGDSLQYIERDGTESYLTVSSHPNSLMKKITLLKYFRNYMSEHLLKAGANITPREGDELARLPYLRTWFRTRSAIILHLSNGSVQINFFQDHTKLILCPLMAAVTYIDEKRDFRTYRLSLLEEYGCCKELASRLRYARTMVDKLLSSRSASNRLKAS

PLK3 (human) = PLK3 (human) (UniProt Q9H4B4)
PRKCH (human) = PRKCH (human) (UniProt P24723)
PRKD3 (human) = PRKD3 (human) (UniProt O94806)
PTK2 (human) = PTK2 (human) (UniProt Q05397)
RIOK3 (human) = RIOK3 (human) (UniProt O14730)
RPS6KA5 KD2 (human) = RPS6KA5 KD2 (human) (UniProt O75582)
RPS6KA6 KD2 (human) = RPS6KA6 KD2 (human) (UniProt Q9UK32)
SGK110 (human) = SGK110 (human) (UniProt P0C264)
SRPK1 (human) = SRPK1 (human) (UniProt Q96SB4)
STK36 (human) = STK36 (human) (UniProt Q9NRP7)
TEK (human) = TEK (human) (UniProt Q02763)
TEK (human), sequence (Q02763 whole entry, looked up): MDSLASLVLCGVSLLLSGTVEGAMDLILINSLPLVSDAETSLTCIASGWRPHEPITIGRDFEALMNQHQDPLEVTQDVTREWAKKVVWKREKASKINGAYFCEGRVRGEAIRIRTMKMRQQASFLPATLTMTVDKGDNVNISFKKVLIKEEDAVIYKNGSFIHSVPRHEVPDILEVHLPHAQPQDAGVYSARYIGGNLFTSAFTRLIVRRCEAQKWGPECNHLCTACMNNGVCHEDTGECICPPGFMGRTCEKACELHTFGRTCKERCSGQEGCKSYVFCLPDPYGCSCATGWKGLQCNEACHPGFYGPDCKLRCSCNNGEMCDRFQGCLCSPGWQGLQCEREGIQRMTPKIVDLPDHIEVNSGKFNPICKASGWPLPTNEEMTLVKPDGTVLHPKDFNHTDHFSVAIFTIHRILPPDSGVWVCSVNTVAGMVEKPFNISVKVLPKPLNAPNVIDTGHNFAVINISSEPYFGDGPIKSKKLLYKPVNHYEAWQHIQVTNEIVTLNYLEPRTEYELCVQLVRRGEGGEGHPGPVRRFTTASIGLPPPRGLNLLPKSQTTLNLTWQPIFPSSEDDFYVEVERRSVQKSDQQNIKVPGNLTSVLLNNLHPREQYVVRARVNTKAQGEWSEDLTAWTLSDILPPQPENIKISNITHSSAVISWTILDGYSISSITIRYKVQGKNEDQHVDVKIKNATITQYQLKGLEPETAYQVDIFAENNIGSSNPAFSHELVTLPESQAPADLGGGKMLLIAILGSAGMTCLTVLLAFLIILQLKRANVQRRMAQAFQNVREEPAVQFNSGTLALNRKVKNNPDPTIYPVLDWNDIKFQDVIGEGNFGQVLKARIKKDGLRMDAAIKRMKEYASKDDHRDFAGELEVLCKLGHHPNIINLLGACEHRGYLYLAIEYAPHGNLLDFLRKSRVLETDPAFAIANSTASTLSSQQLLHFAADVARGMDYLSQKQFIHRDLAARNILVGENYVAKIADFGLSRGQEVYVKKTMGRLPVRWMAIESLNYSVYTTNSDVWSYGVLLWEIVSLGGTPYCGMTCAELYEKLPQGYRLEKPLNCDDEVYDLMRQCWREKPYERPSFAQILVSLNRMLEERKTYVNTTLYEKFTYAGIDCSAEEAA

TESK1 (human) = TESK1 (human) (UniProt Q15569)
TLK1 (human) = TLK1 (human) (UniProt Q9UKI8)
TLK1 (human), sequence (Q9UKI8 whole entry, looked up): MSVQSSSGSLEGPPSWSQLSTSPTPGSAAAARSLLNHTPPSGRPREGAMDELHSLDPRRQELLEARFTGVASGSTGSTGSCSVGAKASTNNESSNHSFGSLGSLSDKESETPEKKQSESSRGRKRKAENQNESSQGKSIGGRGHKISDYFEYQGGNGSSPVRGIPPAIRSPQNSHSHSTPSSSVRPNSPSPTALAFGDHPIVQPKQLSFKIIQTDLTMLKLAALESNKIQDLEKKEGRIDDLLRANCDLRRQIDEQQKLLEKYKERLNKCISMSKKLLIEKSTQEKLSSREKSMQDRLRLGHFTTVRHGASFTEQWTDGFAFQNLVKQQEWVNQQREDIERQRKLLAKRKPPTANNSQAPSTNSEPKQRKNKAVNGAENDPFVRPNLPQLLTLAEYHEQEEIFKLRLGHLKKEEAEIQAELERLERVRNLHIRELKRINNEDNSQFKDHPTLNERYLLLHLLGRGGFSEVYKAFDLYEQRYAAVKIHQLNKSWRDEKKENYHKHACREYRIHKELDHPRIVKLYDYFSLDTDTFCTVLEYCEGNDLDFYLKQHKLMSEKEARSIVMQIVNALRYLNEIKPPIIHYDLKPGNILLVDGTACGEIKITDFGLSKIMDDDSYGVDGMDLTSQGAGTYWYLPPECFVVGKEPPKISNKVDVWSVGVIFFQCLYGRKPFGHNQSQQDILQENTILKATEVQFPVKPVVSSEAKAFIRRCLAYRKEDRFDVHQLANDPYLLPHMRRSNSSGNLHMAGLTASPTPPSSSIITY

O=C1Nc2ccc(I)cc2/C1=C/c1cc(Br)c(O)c(Br)c1
kinase still bound, per cent of control (ACVR2A (human)): 100%
kinase still bound, per cent of control (ADCK3 (human)): 100%
kinase still bound, per cent of control (BMPR1A (human)): 8.8%
kinase still bound, per cent of control (CAMK2B (human)): 17%
kinase still bound, per cent of control (CDC42BPA (human)): 100%
kinase still bound, per cent of control (CDK5 (human)): 83%
kinase still bound, per cent of control (CHEK2 (human)): 12%
kinase still bound, per cent of control (CHUK (human)): 100%
kinase still bound, per cent of control (CLK4 (human)): 36%
kinase still bound, per cent of control (CSNK1E (human)): 84%
kinase still bound, per cent of control (CaMK1 (human)): 70%
kinase still bound, per cent of control (DMPK (human)): 100%
kinase still bound, per cent of control (EPHB2 (human)): 100%
kinase still bound, per cent of control (ERBB2 (human)): 94%
kinase still bound, per cent of control (FYN (human)): 52%
kinase still bound, per cent of control (IKBKE (human)): 86%
kinase still bound, per cent of control [1]: 57%
kinase still bound, per cent of control [2]: 1.8%
kinase still bound, per cent of control (MAP2K1 (human)): 68%
kinase still bound, per cent of control (MAP2K4 (human)): 3.4%
kinase still bound, per cent of control (MAP4K3 (human)): 100%
kinase still bound, per cent of control (MARK1 (human)): 99%
kinase still bound, per cent of control (MST4 (human)): 100%
kinase still bound, per cent of control (PAK7 (human)): 87%
kinase still bound, per cent of control (PDGFRB (human)): 5.5%
kinase still bound, per cent of control (PIM3 (human)): 2%
kinase still bound, per cent of control (PLK1 (human)): 100%
kinase still bound, per cent of control (PLK3 (human)): 86%
kinase still bound, per cent of control (PRKCH (human)): 100%
kinase still bound, per cent of control (PRKD3 (human)): 100%
kinase still bound, per cent of control (PTK2 (human)): 98%
kinase still bound, per cent of control (RIOK3 (human)): 17%
kinase still bound, per cent of control (RPS6KA5 KD2 (human)): 63%
kinase still bound, per cent of control (RPS6KA6 KD2 (human)): 1.7%
kinase still bound, per cent of control (SGK110 (human)): 100%
kinase still bound, per cent of control (SRPK1 (human)): 40%
kinase still bound, per cent of control (STK36 (human)): 14%
kinase still bound, per cent of control (TEK (human)): 100%
kinase still bound, per cent of control (TESK1 (human)): 100%
kinase still bound, per cent of control (TLK1 (human)): 100%

O=C(NOC[C@H](O)CO)c1ccc(F)c(F)c1Nc1ccc(I)cc1F
kinase still bound, per cent of control (ACVR2A (human)): 80%
kinase still bound, per cent of control (ADCK3 (human)): 86%
kinase still bound, per cent of control (BMPR1A (human)): 100%
kinase still bound, per cent of control (CAMK2B (human)): 100%
kinase still bound, per cent of control (CDC42BPA (human)): 100%
kinase still bound, per cent of control (CDK5 (human)): 100%
kinase still bound, per cent of control (CHEK2 (human)): 86%
kinase still bound, per cent of control (CHUK (human)): 100%
kinase still bound, per cent of control (CLK4 (human)): 89%
kinase still bound, per cent of control (CSNK1E (human)): 100%
kinase still bound, per cent of control (CaMK1 (human)): 98%
kinase still bound, per cent of control (DMPK (human)): 90%
kinase still bound, per cent of control (EPHB2 (human)): 73%
kinase still bound, per cent of control (ERBB2 (human)): 100%
kinase still bound, per cent of control (FYN (human)): 64%
kinase still bound, per cent of control (IKBKE (human)): 100%
kinase still bound, per cent of control [1]: 100%
kinase still bound, per cent of control [2]: 74%
kinase still bound, per cent of control (MAP2K4 (human)): 83%
kinase still bound, per cent of control (MAP4K3 (human)): 87%
kinase still bound, per cent of control (MARK1 (human)): 100%
kinase still bound, per cent of control (MST4 (human)): 77%
kinase still bound, per cent of control (PAK7 (human)): 100%
kinase still bound, per cent of control (PDGFRB (human)): 66%
kinase still bound, per cent of control (PIM3 (human)): 100%
kinase still bound, per cent of control (PLK1 (human)): 72%
kinase still bound, per cent of control (PLK3 (human)): 100%
kinase still bound, per cent of control (PRKCH (human)): 100%
kinase still bound, per cent of control (PRKD3 (human)): 70%
kinase still bound, per cent of control (PTK2 (human)): 85%
kinase still bound, per cent of control (RIOK3 (human)): 100%
kinase still bound, per cent of control (RPS6KA5 KD2 (human)): 100%
kinase still bound, per cent of control (RPS6KA6 KD2 (human)): 80%
kinase still bound, per cent of control (SGK110 (human)): 100%
kinase still bound, per cent of control (SRPK1 (human)): 100%
kinase still bound, per cent of control (STK36 (human)): 74%
kinase still bound, per cent of control (TEK (human)): 100%
kinase still bound, per cent of control (TESK1 (human)): 98%
kinase still bound, per cent of control (TLK1 (human)): 89%

O=C(O)c1ccc(Nc2ncc3c(n2)-c2ccc(Cl)cc2C(c2c(F)cccc2F)=NC3)cc1
kinase still bound, per cent of control (ACVR2A (human)): 95%
kinase still bound, per cent of control (ADCK3 (human)): 88%
kinase still bound, per cent of control (BMPR1A (human)): 36%
kinase still bound, per cent of control (CAMK2B (human)): 71%
kinase still bound, per cent of control (CDC42BPA (human)): 84%
kinase still bound, per cent of control (CDK5 (human)): 100%
kinase still bound, per cent of control (CHEK2 (human)): 100%
kinase still bound, per cent of control (CHUK (human)): 100%
kinase still bound, per cent of control (CLK4 (human)): 100%
kinase still bound, per cent of control (CSNK1E (human)): 100%
kinase still bound, per cent of control (CaMK1 (human)): 78%
kinase still bound, per cent of control (DMPK (human)): 79%
kinase still bound, per cent of control (EPHB2 (human)): 50%
kinase still bound, per cent of control (FYN (human)): 17%
kinase still bound, per cent of control (IKBKE (human)): 68%
kinase still bound, per cent of control [1]: 100%
kinase still bound, per cent of control [2]: 63%
kinase still bound, per cent of control (MAP2K1 (human)): 86%
kinase still bound, per cent of control (MAP2K4 (human)): 100%
kinase still bound, per cent of control (MAP4K3 (human)): 97%
kinase still bound, per cent of control (MARK1 (human)): 100%
kinase still bound, per cent of control (MST4 (human)): 100%
kinase still bound, per cent of control (PAK7 (human)): 93%
kinase still bound, per cent of control (PDGFRB (human)): 34%
kinase still bound, per cent of control (PIM3 (human)): 42%
kinase still bound, per cent of control (PLK1 (human)): 100%
kinase still bound, per cent of control (PLK3 (human)): 18%
kinase still bound, per cent of control (PRKCH (human)): 100%
kinase still bound, per cent of control (PRKD3 (human)): 96%
kinase still bound, per cent of control (PTK2 (human)): 23%
kinase still bound, per cent of control (RIOK3 (human)): 100%
kinase still bound, per cent of control (RPS6KA5 KD2 (human)): 74%
kinase still bound, per cent of control (RPS6KA6 KD2 (human)): 58%
kinase still bound, per cent of control (SGK110 (human)): 58%
kinase still bound, per cent of control (SRPK1 (human)): 100%
kinase still bound, per cent of control (STK36 (human)): 100%
kinase still bound, per cent of control (TEK (human)): 3%
kinase still bound, per cent of control (TESK1 (human)): 100%
kinase still bound, per cent of control (TLK1 (human)): 77%
